Laboratory results from ChEMBL document CHEMBL2429821, “A Casein kinase 1/Checkpoint kinase 1 pyrazolo-pyridine protein kinase inhibitor as novel activator of the p53 pathway” (Bioorg Med Chem Lett, 2013).
Calls of active or inactive are those of the source. No cut-off for these calls is given here.

Columns and labels:
[1] = target: T1, Casein kinase I/MDM2 (Homo sapiens) (UniProt Q00987+P48729); assay: Inhibition of CK1-MDM2 complex in human A375 cells assessed as effect on p21 protein level at 0.2 to 40 uM after 24 hrs by immunoblotting analysis; format: cell-based; conditions: A-375
[2] = target: T1, Casein kinase I/MDM2 (Homo sapiens); assay: Inhibition of CK1-MDM2 complex in human A375 cells assessed as decrease in MDM2 protein level at 0.2 to 40 uM after 24 hrs by immunoblotting analysis; format: cell-based; conditions: A-375
[3] = target: T1, Casein kinase I/MDM2 (Homo sapiens); assay: Inhibition of CK1-MDM2 complex in human A375 cells assessed as increase in p53 protein level at 0.2 to 40 uM after 24 hrs by immunoblotting analysis; format: cell-based; conditions: A-375
[4] = target: T2, Mitogen-activated protein kinase 14 (Homo sapiens, UniProt Q16539); assay: Inhibition of human p38alpha MAPK assessed as residual activity at 1 uM relative to control
[5] = target: T2, Mitogen-activated protein kinase 14; assay: Inhibition of human p38alpha MAPK assessed as residual activity at 10 uM relative to control
A-375 [6] = assay: Cytotoxicity against human A375 cells assessed as reduction in cell number at 40 uM after 24 hrs by light microscopic analysis relative to control; format: functional, cell-based
[7] = target: T1, Casein kinase I/MDM2 (Homo sapiens); assay: Inhibition of CK1-MDM2 complex in human A375 cells assessed as increase in p21 protein level at 5 to 40 uM compound transfected into cells using attractene carrier after 48 hrs by immunoblotting analysis; format: cell-based; conditions: A-375
[8] = target: T1, Casein kinase I/MDM2 (Homo sapiens); assay: Inhibition of CK1-MDM2 complex in human A375 cells assessed as effect on p53 protein level at 0.2 to 80 uM after 48 hrs by immunoblotting analysis; format: cell-based; conditions: A-375
[9] = target: T1, Casein kinase I/MDM2 (Homo sapiens); assay: Inhibition of CK1-MDM2 complex in human A375 cells assessed as increase in p21 protein level at 0.2 to 5 uM after 48 hrs by immunoblotting analysis; format: cell-based; conditions: A-375
[10] = target: T1, Casein kinase I/MDM2 (Homo sapiens); assay: Inhibition of CK1-MDM2 complex in human A375 cells assessed as increase in MDM2 protein level at 0.2 to 5 uM after 48 hrs by immunoblotting analysis; format: cell-based; conditions: A-375
A-375 [11] = assay: Cell cycle arrest in human A375 cells assessed as accumulation at G2-M phase at 40 uM after 48 hrs by FACS flow cytometric analysis (reference value: 17.3%); format: functional
A-375 [12] = assay: Cell cycle arrest in human A375 cells assessed as accumulation at sub-G1 phase at 40 uM after 48 hrs by FACS flow cytometric analysis (reference value: 2.17%); format: functional
A-375 [13] = assay: Cell cycle arrest in human A375 cells assessed as accumulation at S phase at 20 uM after 48 hrs by FACS flow cytometric analysis (reference value: 25.1%); format: functional
A-375 [14] = assay: Cell cycle arrest in human A375 cells assessed as accumulation at G2-M phase at 20 uM after 48 hrs by FACS flow cytometric analysis (reference value: 17.3%); format: functional
A-375 [15] = assay: Cell cycle arrest in human A375 cells assessed as accumulation at G0-G1 phase at 20 uM after 48 hrs by FACS flow cytometric analysis (reference value: 55.4%); format: functional
A-375 [16] = assay: Cell cycle arrest in human A375 cells assessed as accumulation at sub-G1 phase at 20 uM after 48 hrs by FACS flow cytometric analysis (reference value: 2.17%); format: functional
A-375 [17] = assay: Cell cycle arrest in human A375 cells assessed as accumulation at G2-M phase at 10 uM after 48 hrs by FACS flow cytometric analysis (reference value: 17.3%); format: functional
A-375 [18] = assay: Cell cycle arrest in human A375 cells assessed as accumulation at S phase at 10 uM after 48 hrs by FACS flow cytometric analysis (reference value: 25.1%); format: functional
A-375 [19] = assay: Cell cycle arrest in human A375 cells assessed as accumulation at G0-G1 phase at 10 uM after 48 hrs by FACS flow cytometric analysis (reference value: 55.4%); format: functional
A-375 [20] = assay: Cell cycle arrest in human A375 cells assessed as accumulation at G2-M phase at 5 uM after 48 hrs by FACS flow cytometric analysis (reference value: 17.3%); format: functional
A-375 [21] = assay: Cell cycle arrest in human A375 cells assessed as accumulation at S phase at 5 uM after 48 hrs by FACS flow cytometric analysis (reference value: 25.1%); format: functional
A-375 [22] = assay: Cell cycle arrest in human A375 cells assessed as accumulation at G0-G1 phase at 5 uM after 48 hrs by FACS flow cytometric analysis (reference value: 55.4%); format: functional
A-375 [23] = assay: Cell cycle arrest in human A375 cells assessed as accumulation at S phase at 1 uM after 48 hrs by FACS flow cytometric analysis (reference value: 25.1%); format: functional
A-375 [24] = assay: Cell cycle arrest in human A375 cells assessed as accumulation at G0-G1 phase at 1 uM after 48 hrs by FACS flow cytometric analysis (reference value: 55.4%); format: functional
A-375 [25] = assay: Cell cycle arrest in human A375 cells assessed as accumulation at sub-G1 phase at 1 uM after 48 hrs by FACS flow cytometric analysis (reference value: 2.17%); format: functional
HCT-116 = assay: Cytotoxicity against p53-deficient human HCT116 cells assessed as cell viability at 1 to 32 uM after 24 hrs by MTT assay; format: functional, cell-based
A-375 [26] = assay: Cytotoxicity against human A375 cells assessed as reduction in cell number at 5 uM after 24 hrs by light microscopic analysis relative to control; format: functional, cell-based
[27] = target: Mitogen-activated protein kinase 15 (Homo sapiens, UniProt Q8TD08); assay: Inhibition of human ERK8 in presence of 5 uM ATP
[28] = target: Fibroblast growth factor receptor 1 (Homo sapiens, UniProt P11362); assay: Inhibition of human FGFR1 in presence of 20 uM ATP
Sequence of Fibroblast growth factor receptor 1 (P11362 whole entry): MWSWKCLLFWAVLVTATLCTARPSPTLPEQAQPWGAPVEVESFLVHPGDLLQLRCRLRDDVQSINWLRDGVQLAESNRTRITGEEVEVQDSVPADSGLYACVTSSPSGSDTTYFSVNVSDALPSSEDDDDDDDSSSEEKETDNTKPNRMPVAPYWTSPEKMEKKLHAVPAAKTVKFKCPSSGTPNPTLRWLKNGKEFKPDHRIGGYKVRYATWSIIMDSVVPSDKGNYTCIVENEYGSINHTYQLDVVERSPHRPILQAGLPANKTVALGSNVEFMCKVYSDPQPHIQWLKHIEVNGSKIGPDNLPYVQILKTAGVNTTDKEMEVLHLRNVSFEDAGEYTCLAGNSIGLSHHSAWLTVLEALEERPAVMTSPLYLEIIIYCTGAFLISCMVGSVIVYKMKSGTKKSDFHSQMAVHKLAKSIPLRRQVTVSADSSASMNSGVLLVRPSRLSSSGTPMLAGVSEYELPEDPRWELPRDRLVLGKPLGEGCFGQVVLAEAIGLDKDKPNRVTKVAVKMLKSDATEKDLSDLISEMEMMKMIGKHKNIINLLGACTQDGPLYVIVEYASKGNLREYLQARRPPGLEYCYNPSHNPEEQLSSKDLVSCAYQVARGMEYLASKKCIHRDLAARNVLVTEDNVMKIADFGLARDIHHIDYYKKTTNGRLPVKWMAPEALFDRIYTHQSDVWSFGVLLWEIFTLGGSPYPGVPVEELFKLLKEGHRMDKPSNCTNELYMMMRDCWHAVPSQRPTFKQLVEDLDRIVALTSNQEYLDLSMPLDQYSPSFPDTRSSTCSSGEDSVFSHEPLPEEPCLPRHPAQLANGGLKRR

T1 sequence (P48729 whole entry, looked up): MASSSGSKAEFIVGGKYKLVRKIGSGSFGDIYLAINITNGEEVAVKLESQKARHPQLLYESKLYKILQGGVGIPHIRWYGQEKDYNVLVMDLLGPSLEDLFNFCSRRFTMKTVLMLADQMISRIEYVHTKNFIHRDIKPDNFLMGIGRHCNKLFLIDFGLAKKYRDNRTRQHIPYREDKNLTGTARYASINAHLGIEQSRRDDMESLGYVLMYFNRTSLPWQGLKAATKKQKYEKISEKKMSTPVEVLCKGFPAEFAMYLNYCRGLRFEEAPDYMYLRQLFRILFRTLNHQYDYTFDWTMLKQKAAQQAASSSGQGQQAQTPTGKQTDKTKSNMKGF
T1 sequence (Q00987 whole entry, looked up): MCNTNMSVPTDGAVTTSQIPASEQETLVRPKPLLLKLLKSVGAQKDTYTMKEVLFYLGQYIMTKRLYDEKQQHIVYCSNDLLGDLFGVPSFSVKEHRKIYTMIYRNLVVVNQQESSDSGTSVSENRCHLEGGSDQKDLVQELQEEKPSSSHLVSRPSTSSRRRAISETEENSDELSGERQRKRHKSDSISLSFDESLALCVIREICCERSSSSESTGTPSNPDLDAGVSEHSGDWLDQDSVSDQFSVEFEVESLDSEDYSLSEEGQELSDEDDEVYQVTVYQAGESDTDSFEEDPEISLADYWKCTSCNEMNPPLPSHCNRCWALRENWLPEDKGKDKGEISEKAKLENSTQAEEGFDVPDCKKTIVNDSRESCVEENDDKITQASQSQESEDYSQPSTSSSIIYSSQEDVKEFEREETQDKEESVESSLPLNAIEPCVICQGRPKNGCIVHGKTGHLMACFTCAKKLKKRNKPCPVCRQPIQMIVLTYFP
T2 sequence (Q16539 whole entry): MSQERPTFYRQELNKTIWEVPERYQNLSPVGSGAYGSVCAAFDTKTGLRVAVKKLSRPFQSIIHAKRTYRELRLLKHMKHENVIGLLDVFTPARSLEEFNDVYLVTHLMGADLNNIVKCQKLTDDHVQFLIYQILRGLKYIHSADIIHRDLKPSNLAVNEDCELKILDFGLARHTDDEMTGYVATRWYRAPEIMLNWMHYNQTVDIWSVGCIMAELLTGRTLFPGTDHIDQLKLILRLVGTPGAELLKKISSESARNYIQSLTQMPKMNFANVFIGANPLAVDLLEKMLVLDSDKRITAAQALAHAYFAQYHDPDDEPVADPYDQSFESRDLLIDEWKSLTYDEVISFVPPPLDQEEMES
Sequence of Mitogen-activated protein kinase 15 (Q8TD08 whole entry): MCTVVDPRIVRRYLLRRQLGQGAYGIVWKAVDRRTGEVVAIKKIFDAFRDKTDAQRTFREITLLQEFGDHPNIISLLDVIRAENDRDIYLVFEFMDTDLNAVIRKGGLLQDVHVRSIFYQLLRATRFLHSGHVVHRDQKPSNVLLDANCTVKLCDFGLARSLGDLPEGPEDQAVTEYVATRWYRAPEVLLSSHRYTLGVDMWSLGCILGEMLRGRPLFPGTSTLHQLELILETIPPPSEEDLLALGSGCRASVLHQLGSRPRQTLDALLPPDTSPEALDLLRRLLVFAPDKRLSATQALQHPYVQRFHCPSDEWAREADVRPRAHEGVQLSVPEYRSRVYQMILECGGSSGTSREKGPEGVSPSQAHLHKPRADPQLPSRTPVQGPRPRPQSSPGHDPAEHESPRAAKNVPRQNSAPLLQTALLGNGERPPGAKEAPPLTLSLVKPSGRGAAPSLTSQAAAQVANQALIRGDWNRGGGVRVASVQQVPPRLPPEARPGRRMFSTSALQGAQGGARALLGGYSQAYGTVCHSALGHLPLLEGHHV

CCCC(=O)Nc1n[nH]c2ncc(-c3cccnc3)cc12
inhibition [1]: inactive | inhibition [2]: Active | inhibition [3]: Active | Activity [4]: 84% | Activity [5]: 91%

CC(=O)Nc1nccc(-c2c(-c3ccccc3)noc2C)n1
Activity (A-375 [6]): inactive | inhibition [7]: inactive | inhibition [8]: inactive

CC(=O)Nc1cccc(-c2cnc3[nH]nc(C)c3c2)c1
inhibition [9]: Active | inhibition [10]: Active | Activity (A-375 [11]): 8.54% | Activity (A-375 [12]): 56.7% | Activity (A-375 [13]): 14.2% | Activity (A-375 [14]): 9.65% | Activity (A-375 [15]): 25.1% | Activity (A-375 [16]): 50.5% | Activity (A-375 [17]): 12.8% | Activity (A-375 [18]): 12.6% | Activity (A-375 [19]): 39.6% | Activity (A-375 [20]): 15.9% | Activity (A-375 [21]): 13.7% | Activity (A-375 [22]): 50.8% | Activity (A-375 [23]): 21.6% | Activity (A-375 [24]): 57.7% | Activity (A-375 [25]): 2.37% | Activity (HCT-116): Active | Activity (A-375 [26]): Active | IC50 [27]: 0.4 µM | IC50 [28]: 6 µM
